{"source": "patent US20200171051A1", "about": "“METHODS FOR TREATING RENAL INJURY BY […] UPREGULATING P21” (RENIBUS THERAPEUTICS, INC., priority 2018, published 2020)", "key": {"[1]": {"system": "renal cortical p21", "experiment": "Normal mice (no renal injury): renal cortical p21 protein and mRNA", "assay_type": "in vivo, male CD-1 mice", "experimental": "The present inventors conducted studies to better understand the factors that drive renal p21 expression during AKI. All experiments were performed using male CD-1 mice (35-40 grams, Charles River Laboratories, Wilmington, Del.) maintained under routine vivarium conditions with free food and water access. The AKI models were approved by the institution's Animal Care and Utilization Committee). All surgical procedures were conducted under deep pentobarbital anesthesia (40-50 mg/Kg IP). Mice were briefly anesthetized with isoflurane, and then subjected to intramuscular glycerol injection (administered in equally divided doses into each hind limb). […] At 4 hrs post glycerol injection, a tail vein tail vein blood sample (˜25 μl) was obtained, and at 18 hrs, the mice were deeply anesthetized with pentobarbital. The abdominal cavity was opened through a midline abdominal incision, a terminal vena cava blood sample was obtained, the kidneys were removed, iced, and renal cortical samples were cut and extracted for both protein and total RNA (RNeasy Mini+; Qiagen; Germantown, Md.). A terminal urine sample was collected from the urinary bladder. Plasma samples were assayed for blood urea nitrogen (BUN) and creatinine (Cr). Johnson A C, Zager R A. Plasma and urinary p21: potential biomarkers of AKI and renal aging. Am J Physiol 2018; […] [Epub ahead of print]. Renal cortical, plasma, and urinary p21 concentrations were determined with a ‘sandwich’ ELISA which employs two distinct monoclonal antibodies (capture; detection) directed against two different p21 epitopes, conferring p21 specificity; (#2120721; Abcam, Cambridge, Mass.). Renal cortical p21 mRNA levels were determined by RT-PCR, factored by GAPDH. Ten normal mice provided control plasma, urine, and tissue values for comparisons. To determine the impact of DXM on renal p21 expression in the absence of renal injury, 5 mice were injected with DXM as above, and 4 hrs later p21 protein/mRNA levels were measured and compared to normal values. Given an unexpected finding that corticosteroid injection increased, rather than suppressed, p21 expression, and given that endogenous cortisol levels were markedly elevated post-glycerol injection, we questioned whether glucocorticoid receptor (GCR) blockade would decrease p21 expression. […] Four hrs later, the kidneys were removed and renal cortices were analyzed for p21 mRNA and protein levels. Four mice, treated with mifepristone in the absence of glycerol injection, served to evaluate its effects in the absence of glycerol injection."}, "[2]": {"system": "renal cortical p21", "experiment": "Glycerol AKI model: renal cortical p21 mRNA (RT-PCR, factored by GAPDH) and p21 protein (ELISA)", "assay_type": "in vivo, male CD-1 mice", "experimental": "(§1) The present inventors conducted studies to better understand the factors that drive renal p21 expression during AKI. All experiments were performed using male CD-1 mice (35-40 grams, Charles River Laboratories, Wilmington, Del.) maintained under routine vivarium conditions with free food and water access. The AKI models were approved by the institution's Animal Care and Utilization Committee). All surgical procedures were conducted under deep pentobarbital anesthesia (40-50 mg/Kg IP).\nMice were briefly anesthetized with isoflurane, and then subjected to intramuscular glycerol injection (administered in equally divided doses into each hind limb). The glycerol dose ware varied (6, 6.5, 7, 7.5, 8, 8.5, 9 ml/Kg; n˜2-3 per dose) in order to produce variable degrees of renal injury. At 4 hrs post glycerol injection, a tail vein tail vein blood sample (˜25 μl) was obtained, and at 18 hrs, the mice were deeply anesthetized with pentobarbital. The abdominal cavity was opened through a midline abdominal incision, a terminal vena cava blood sample was obtained, the kidneys were removed, iced, and renal cortical samples were cut and extracted for both protein and total RNA (RNeasy Mini+; Qiagen; Germantown, Md.). A terminal urine sample was collected from the urinary bladder. Plasma samples were assayed for blood urea nitrogen (BUN) and creatinine (Cr). Johnson A C, Zager R A. Plasma and urinary p21: potential biomarkers of AKI and renal aging. Am J Physiol 2018; Aug. 1. doi: 10.1152/ajprenal.00328.2018. [Epub ahead of print]. Renal cortical, plasma, and urinary p21 concentrations were determined with a ‘sandwich’ ELISA which employs two distinct monoclonal antibodies (capture; detection) directed against two different p21 epitopes, conferring p21 specificity; (#2120721; Abcam, Cambridge, Mass.). Renal cortical p21 mRNA levels were determined by RT-PCR, factored by GAPDH. Ten normal mice provided control plasma, urine, and tissue values for comparisons.\nTo assess renal cortical changes at an earlier time point than that noted above (18 hrs post glycerol injection), an additional 5 mice were subjected to glycerol injection (8.5 ml/Kg) and 4 hrs later, renal cortical protein/RNA samples were obtained for use in the above noted assays. The results were contrasted to those observed in 5 normal mice.\nPifithrin-α is a stable, water soluble, p53 inhibitor which blocks activation of p53 responsive genes. Dagher P C, Mai E M, Hato T, Lee S Y, Anderson M D Karozos S C Mang H E, Knipe N L, Plotkin Z, Sutton T A: The p53 inhibitor pifithrin can stimulate fibrosis in a rat model of ischemic acute kidney injury. Am J Physiol Renal Physiol 302: F284-F291, 2012; Komarov P G, Komarova E A, Kondratov R V, Christov-Tselkov K, Coon J S, Chernov M V et al. A chemical inhibitor of p53 that protects mice from the side effects of cancer therapy. Science 285: 1733-1737, 1999. As such, it has been used to differentiate p53-dependent vs. p53-independent pathways. To further explore the potential role of p53 on p21 gene activation, 3 mice were injected IP with 10 mg/Kg pifithrin-α (10% DMSO in saline; EMD Millipore #506154; Burlington, Mass.). Three additional mice received vehicle injection. Immediately thereafter the mice were injected with […] glycerol. Four hrs post glycerol injection, renal cortical tissues were analyzed for p21 and p53 mRNAs.\nInflammation can induce p21 gene activation via the inflammatory cascade (1, 2). Basile J R, Eichten A, Zacny V, Münger K. NF-kappaB-mediated induction of p21(Cip1/Waf1) by tumor necrosis factor alpha induces growth arrest and cytoprotection in normal human keratinocytes. Mol Cancer Res. 2003; 4: 262-270; Bellido T, O'Brien C A, Roberson P K, Manolagas S C: Transcriptional Activation of the p21WAF1,CIP1,SDI1 Gene by Interleukin-6 Type Cytokines. J Biol Chem 1998; 273:21137-21144. […]"}, "[3]": {"conditions": "in vivo; cited from earlier work"}, "[4]": {"conditions": "relative to cortisol = 1; cited from earlier work"}, "[5]": {"system": "renal cortical p53 mRNA", "experiment": "Glycerol AKI model: renal cortical p53 mRNA", "assay_type": "in vivo, male CD-1 mice", "conditions": "4 hr post glycerol + pifithrin-α 10 mg/Kg IP; mean ± SEM; glycerol alone 0.75±0.02; NS", "experimental": "as §1\nMice were briefly anesthetized with isoflurane, and then subjected to intramuscular glycerol injection (administered in equally divided doses into each hind limb). The glycerol dose ware varied (6, 6.5, 7, 7.5, 8, 8.5, 9 ml/Kg; n˜2-3 per dose) in order to produce variable degrees of renal injury. […] Renal cortical, plasma, and urinary p21 concentrations were determined with a ‘sandwich’ ELISA which employs two distinct monoclonal antibodies (capture; detection) directed against two different p21 epitopes, conferring p21 specificity; (#2120721; Abcam, Cambridge, Mass.). Renal cortical p21 mRNA levels were determined by RT-PCR, factored by GAPDH. […]\nPifithrin-α is a stable, water soluble, p53 inhibitor which blocks activation of p53 responsive genes. […] Four hrs post glycerol injection, renal cortical tissues were analyzed for p21 and p53 mRNAs. […]"}, "[6]": {"conditions": "normal mice, within 4 hrs of DXM injection (250 μg IP)"}, "[7]": {"conditions": "4 hr post glycerol kidneys, DXM 250 μg IP 30 min before glycerol 8.5 ml/Kg"}, "[8]": {"conditions": "control mice, 4 hrs post MFP 30 mg/Kg, in words"}, "[9]": {"conditions": "glycerol treated mice, 4 hrs, MFP 30 mg/Kg, in words"}}}
{"smiles": "C[C@@H]1C[C@H]2[C@@H]3CCC4=CC(=O)C=C[C@]4(C)[C@@]3(F)[C@@H](O)C[C@]2(C)[C@@]1(O)C(=O)CO", "note": "[Dexamethasone]", "values": [{"measurement": "increase in renal cortical p21 mRNA", "setting": "[1]; [6]", "value": 15, "unit": "×"}, {"measurement": "increase in renal cortical p21 protein", "setting": "[1]; [6]", "value": 10, "unit": "×"}, {"measurement": "increase in p21 mRNA", "setting": "[2]; [7]", "value": "~3", "unit": "fold"}, {"measurement": "increase in p21 protein", "setting": "[2]; [7]", "value": "~3", "unit": "fold"}]}
{"smiles": "C[C@H]1C[C@@H]2[C@H]([C@@H](O)C[C@@]3(C)[C@H]2CC[C@]3(O)C(=O)CO)[C@@]2(C)C=CC(=O)C=C12", "note": "[Methylprednisolone]", "values": [{"measurement": "Terminal half-life", "setting": "[3]", "value": "18 to 40", "unit": "h"}]}
{"smiles": "C[C@]12CCC(=O)C=C1CC[C@@H]1[C@@H]2C(=O)C[C@@]2(C)[C@H]1CC[C@]2(O)C(=O)CO", "note": "[Cortisone]", "values": [{"measurement": "Glucocorticoid potency", "setting": "[4]", "value": 0.8}]}
{"smiles": "CC#C[C@]1(O)CC[C@H]2[C@@H]3CCC4=CC(=O)CCC4=C3[C@@H](c3ccc(N(C)C)cc3)C[C@@]21C", "note": "[Mifepristone]", "values": [{"measurement": "effect on p21 mRNA values", "setting": "[1]; [8]", "value": "no significant decrease"}, {"measurement": "effect on p21 protein values", "setting": "[1]; [8]", "value": "no significant decrease"}, {"measurement": "effect on p21 protein levels", "setting": "[2]; [9]", "value": "normalized"}, {"measurement": "effect on post glycerol p21 mRNA levels", "setting": "[2]; [9]", "value": "modest reduction"}]}
{"smiles": "C[C@]12CCC(=O)C=C1CC[C@@H]1[C@@H]2[C@@H](O)C[C@@]2(C)[C@H]1CC[C@]2(O)C(=O)CO", "note": "[Cortisol]", "values": [{"measurement": "Terminal half-life", "setting": "[3]", "value": 8, "unit": "h"}, {"measurement": "effect on 4 hr post glycerol p21 mRNA levels", "setting": "[2]; cortisol 1 mg/Kg IP 30 min before glycerol 8.5 ml/Kg, in words", "value": "to the same degree as did DXM injection"}, {"measurement": "Glucocorticoid potency", "setting": "[4]", "value": 1}]}
{"smiles": "C[C@]12C=CC(=O)C=C1CC[C@H]1[C@@H]3C[C@@H](O)[C@](O)(C(=O)CO)[C@@]3(C)C[C@H](O)[C@@]12F", "note": "[Triamcinolone]", "values": [{"measurement": "Terminal half-life", "setting": "[3]", "value": "12 to 36", "unit": "h"}, {"measurement": "Glucocorticoid potency", "setting": "[4]", "value": 5}]}
{"smiles": "C[C@]12C=CC(=O)C=C1CC[C@@H]1[C@@H]2[C@@H](O)C[C@@]2(C)[C@H]1CC[C@]2(O)C(=O)CO", "note": "[Prednisolone]", "values": [{"measurement": "Terminal half-life", "setting": "[3]", "value": "16 to 36", "unit": "h"}, {"measurement": "Glucocorticoid potency", "setting": "[4]", "value": 4}]}
{"smiles": "C[C@]12C=CC(=O)C=C1CC[C@@H]1[C@@H]2C(=O)C[C@@]2(C)[C@H]1CC[C@]2(O)C(=O)CO", "note": "[Prednisone]", "values": [{"measurement": "Terminal half-life", "setting": "[3]", "value": "16 to 36", "unit": "h"}]}
{"smiles": "Cc1ccc(C(=O)Cn2c3c(sc2=N)CCCC3)cc1", "note": "[pifithrin-α, Pifithrin-α]", "values": [{"measurement": "renal cortical p21 mRNA", "setting": "[2]; 4 hr post glycerol + pifithrin-α 10 mg/Kg IP, mean ± SEM, controls 0.34±0.1, glycerol alone 1.43±0.11", "value": "1.71±0.08"}, {"measurement": "renal cortical p53 mRNA", "setting": "[5]", "value": "0.7±0.03"}]}
